Experimental data from patent publication US20250206756A1, “INHIBITORS” (Pfizer Inc., priority 2023, published 2025).

system: SZ95 human sebocytes; assay: High content imaging assay to quantify lipid droplets in a human sebocyte cell line; format: cell-based; details: 48 hours incubation, Bodipy neutral lipid staining, read-out: Human SZ95 Sebocyte Lipid Imaging Assay / Percent Inhibition of Lipid Droplets IC50
Procedure: High content imaging assay to quantify lipid droplets in a human sebocyte cell line One week prior to cell dosing, SZ95 human sebocytes were thawed and grown in a T175 tissue culture flask containing 50 mL media. Media was prepared as follows: Sebomed basal medium with stable glutamine and without phenol red (Sigma; Catalog No. F8205), 10% heat inactivated fetal bovine serum (Invitrogen; Cat. No. 10082), 5 ng/mL recombinant human epidermal growth factor (Gibco; Catalog No. PHG0311), 1 mM calcium chloride (Fisher Scientific; Catalog No. BP9742), and 1X penicillin/streptomycin (Thermo Fisher; Catalog No. 15140-122). Cells were cultured at 37° C. and the media was replaced every 48-72 hours until start of assay. Compounds were delivered as a 75 nL spot by the Echo 550 (Labcyte) into 384-well assay plates (PerkinElmer; Catalog No. 6057308) with final compound concentrations of […], 0.003, 0.001, 0.0003, and 0.0001 μM. The final DMSO concentration was 0.1%. SZ-95 cells were washed with Dulbecco's phosphate buffered saline (DPBS, Lonza; Catalog No. 17-512Q) and then detached with 0.25% Trypsin-EDTA (Gibco; Catalog No. 25200056). Growth media (25 mL) was added to the flask and the cells were further diluted to 1.33×10∧5 cells/mL. SZ-95 cells were plated at a density of 10,000 cells/well in 75 μL and incubated for 48 hours at 37° C. Using the Biomek FX (Beckman), 25 μL of media was removed and the cells were fixed by adding 18.7 μL of 16% paraformaldehyde (Electron Microscopy Sciences; Cat. No. 50980488). After a 30 minute incubation at room temperature, the plates were washed twice with 75pi DPBS. Following the second wash, all remaining DPBS was removed. Staining solution was prepared with 2 μM Bodipy (Invitrogen; Cat. No D3922, diluted 1:1000) and Hoechst (Life Technologies; Cat. No. H3570, diluted 1:2000) in DPBS. Using the Biomek FX, 30 μL of the staining solution was added to each well. The cells were incubated for 20 minutes at room temperature, then washed once with 75 μL DPBS. Finally, 30 μL of DPBS was added to each well and the plates were sealed with light blocking film. The plates were read on an Opera Phenix (PerkinElmer) for high content imaging. Nuclei were detected by Hoechst staining and lipid droplets by Bodipy, which stains neutral lipids. […] The percent (%) effect at each concentration of compound is calculated by Genedata Screener analysis program using a four-parameter logistic dose response equation and is based on and relative to the amount of lipid droplets in the positive and negative control wells contained within each assay plate to determine the 50% inhibition concentration (IC50).

| Structure (SMILES) | IC50 |
| --- | --- |
| CCOc1cc(C(=O)N2CCC3(CC2)Cc2sc(C(C)(C)C)nc2C(O)C3)cc2c(C)nn(C)c12 (racemic) [Example 4, rac-(R)-(2-(tert-butyl)-4-hydroxy-4,7-dihydro-5H-spiro[benzo[d]thiazole-6,4′-piperidin]-1′-yl)(7-ethoxy-1,3-dimethyl-1H-indazol-5-yl)methanone] | 20 nM |
| CCOc1cc(C(=O)N2CCC3(CC2)CC(=O)c2nc(C(C)(C)C)sc2C3)cc2c(C)n[nH]c12 [Example 1, 2-(tert-butyl)-1′-(7-ethoxy-3-methyl-1H-Indazole-5-carbonyl)-5H-spiro[benzo[d]thiazole-6,4′-piperidin]-4(7H)-one] | 10 nM |
| Cc1nn(C)c2c(O)cc(C(=O)N3CCC4(CC3)CC(=O)c3nc(C(C)(C)C)sc3C4)cc12 [Example 2] | 11 nM |
| CCOc1cc(C(=O)N2CCC3(CC2)CC(=O)c2nc(C(C)(C)CO)sc2C3)cc2c(C)nn(C)c12 [Example 3, 1′-(7-ethoxy-1,3-dimethyl-1H-Indazole-5-carbonyl)-2-(1-hydroxy-2-methylpropan-2-yl)-5H-spiro[benzo[d]thiazole-6,4′-piperidin]-4(7H)-one] | 16 nM |
| Cc1nn(C)c2c(O)cc(C(=O)N3CCC4(CC3)CC(=O)c3nc(C(C)(C)CO)sc3C4)cc12 [Example 8] | > 0.145 nM |

More lines, now with the values ahead:

| IC50 | Structure (SMILES) |
| --- | --- |
| 122 nM | CCOc1cc(C(=O)N2CCC3(CC2)Cc2sc(C(C)(C)C)nc2[C@H](O)C3)cc2c(C)nn(C)c12 [Example 4a, (R)-(2-(tert-butyl)-4-hydroxy-4,7-dihydro-5H-spiro[benzo[d]thiazole-6,4′-piperidin]-1′-yl)(7-ethoxy-1,3-dimethyl-1H-indazol-5-yl)methanone] |
| 7 nM | CCOc1cc(C(=O)N2CCC3(CC2)Cc2sc(C(C)(C)C)nc2[C@@H](O)C3)cc2c(C)nn(C)c12 [Example 4b] |
